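Where inhibition never reached the appropriate level, the endpoint shown equals the highest concentration tested. Otherwise, values were interpolated linearly from a five-concentration, 48-hour dose response in 96-well plates. Abbreviation: GI50, concentration required for 50% inhibition of growth. TGI: concentration producing complete growth inhibition.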
Tests used:
Assay in all cases: DTP human tumour cell line panel, 48 h
OVCAR-3 ovarian = system: OVCAR-3 ovarian
SW-620 colon = system: SW-620 colon
SK-OV-3 ovarian = system: SK-OV-3 ovarian
SF-268 CNS = system: SF-268 CNS
UACC-257 melanoma = system: UACC-257 melanoma
OVCAR-5 ovarian = system: OVCAR-5 ovarian
OVCAR-8 ovarian = system: OVCAR-8 ovarian
SF-539 CNS = system: SF-539 CNS
M14 melanoma = system: M14 melanoma
HOP-92 NSCLC = system: HOP-92 NSCLC
ACHN renal = system: ACHN renal
MALME-3M melanoma = system: MALME-3M melanoma
CAKI-1 renal = system: CAKI-1 renal
UO-31 renal = system: UO-31 renal
786-0 renal = system: 786-0 renal
TK-10 renal = system: TK-10 renal
MCF7 breast = system: MCF7 breast
CCRF-CEM leukemia = system: CCRF-CEM leukemia
OVCAR-4 ovarian = system: OVCAR-4 ovarian
NCI-H522 lung = system: NCI-H522 lung
PC-3 prostate = system: PC-3 prostate
SK-MEL-28 melanoma = system: SK-MEL-28 melanoma
A549 NSCLC = system: A549 NSCLC
DU-145 prostate = system: DU-145 prostate
HS 578T breast = system: HS 578T breast
RXF 393 renal = system: RXF 393 renal
BT-549 breast = system: BT-549 breast
HL-60(TB) leukemia = system: HL-60(TB) leukemia
IGROV1 ovarian = system: IGROV1 ovarian
MDA-MB-231 breast = system: MDA-MB-231 breast
T-47D breast = system: T-47D breast
KM12 colon = system: KM12 colon
A498 renal = system: A498 renal
SK-MEL-2 melanoma = system: SK-MEL-2 melanoma
K-562 leukemia = system: K-562 leukemia
SF-295 CNS = system: SF-295 CNS
NCI/ADR-RES ovarian = system: NCI/ADR-RES ovarian
SK-MEL-5 melanoma = system: SK-MEL-5 melanoma
LOX IMVI melanoma = system: LOX IMVI melanoma
HCT-15 colon = system: HCT-15 colon
SR leukemia = system: SR leukemia
SNB-19 CNS = system: SNB-19 CNS
SNB-75 CNS = system: SNB-75 CNS
SN12C renal = system: SN12C renal
RPMI-8226 leukemia = system: RPMI-8226 leukemia
EKVX NSCLC = system: EKVX NSCLC
MOLT-4 leukemia = system: MOLT-4 leukemia
HT29 colon = system: HT29 colon
HCC-2998 colon = system: HCC-2998 colon
HCT-116 colon = system: HCT-116 colon
NCI-H23 lung = system: NCI-H23 lung
NCI-H460 lung = system: NCI-H460 lung
MDA-MB-435 = system: MDA-MB-435
UACC-62 melanoma = system: UACC-62 melanoma
NCI-H226 lung = system: NCI-H226 lung

`CCCCCC/C=C\CCCCCCCCCc1cc(O)cc(OC)c1O` was tested, and the GI50 (OVCAR-3 ovarian) was 401 nM, the TGI (OVCAR-3 ovarian) was 1430 nM and the GI50 (SW-620 colon) was 371 nM. For the same compound, the TGI (SW-620 colon) was 1810 nM, the GI50 (SK-OV-3 ovarian) was 402 nM and the TGI (SK-OV-3 ovarian) was 11600 nM. The GI50 (SF-268 CNS) was 441 nM, the TGI (SF-268 CNS) was 1690 nM and the GI50 (UACC-257 melanoma) was 474 nM. It also gave a TGI (UACC-257 melanoma) of 2920 nM, a GI50 (OVCAR-5 ovarian) of 402 nM and a TGI (OVCAR-5 ovarian) of 2410 nM. The GI50 (OVCAR-8 ovarian) was 307 nM, the TGI (OVCAR-8 ovarian) was 6500 nM and the GI50 (SF-539 CNS) was 377 nM. For the same compound, the TGI (SF-539 CNS) was 1510 nM, the GI50 (M14 melanoma) was 403 nM and the TGI (M14 melanoma) was 3650 nM. The GI50 (HOP-92 NSCLC) was 234 nM, the TGI (HOP-92 NSCLC) was 767 nM and the GI50 (ACHN renal) was 318 nM. It also gave a TGI (ACHN renal) of 1210 nM, a GI50 (MALME-3M melanoma) of 444 nM and a TGI (MALME-3M melanoma) of 2140 nM. It also gave a GI50 (CAKI-1 renal) of 497 nM, a TGI (CAKI-1 renal) of 1820 nM and a GI50 (UO-31 renal) of 321 nM. The TGI (UO-31 renal) was 1220 nM, the GI50 (786-0 renal) was 316 nM and the TGI (786-0 renal) was 1570 nM. For the same compound, the GI50 (TK-10 renal) was 664 nM, the TGI (TK-10 renal) was 2650 nM and the GI50 (MCF7 breast) was 292 nM. The TGI (MCF7 breast) was 2490 nM, the GI50 (CCRF-CEM leukemia) was 219 nM and the TGI (CCRF-CEM leukemia) was 1290 nM. It also gave a GI50 (OVCAR-4 ovarian) of 389 nM, a TGI (OVCAR-4 ovarian) of 1690 nM and a GI50 (NCI-H522 lung) of 321 nM. The TGI (NCI-H522 lung) was 1220 nM, the GI50 (PC-3 prostate) was 308 nM and the TGI (PC-3 prostate) was 1540 nM. For the same compound, the GI50 (SK-MEL-28 melanoma) was 653 nM, the TGI (SK-MEL-28 melanoma) was 2340 nM and the GI50 (A549 NSCLC) was 406 nM. For the same compound, the TGI (A549 NSCLC) was 14600 nM, the GI50 (DU-145 prostate) was 575 nM and the TGI (DU-145 prostate) was 15200 nM. It also gave a GI50 (HS 578T breast) of 599 nM, a TGI (HS 578T breast) of 5180 nM and a GI50 (RXF 393 renal) of 320 nM. The TGI (RXF 393 renal) was 1380 nM, the GI50 (BT-549 breast) was 375 nM and the TGI (BT-549 breast) was 1450 nM. The GI50 (HL-60(TB) leukemia) was 272 nM, the TGI (HL-60(TB) leukemia) was 717 nM and the GI50 (IGROV1 ovarian) was 433 nM. It also gave a TGI (IGROV1 ovarian) of 1640 nM, a GI50 (MDA-MB-231 breast) of 308 nM and a TGI (MDA-MB-231 breast) of 978 nM. For the same compound, the GI50 (T-47D breast) was 349 nM, the TGI (T-47D breast) was 1930 nM and the GI50 (KM12 colon) was 388 nM. For the same compound, the TGI (KM12 colon) was 2300 nM, the GI50 (A498 renal) was 330 nM and the TGI (A498 renal) was 2070 nM. For the same compound, the GI50 (SK-MEL-2 melanoma) was 494 nM, the TGI (SK-MEL-2 melanoma) was 2410 nM and the GI50 (K-562 leukemia) was 298 nM. The TGI (K-562 leukemia) was 2080 nM, the GI50 (SF-295 CNS) was 304 nM and the TGI (SF-295 CNS) was 1370 nM. It also gave a GI50 (NCI/ADR-RES ovarian) of 311 nM, a TGI (NCI/ADR-RES ovarian) of 1270 nM and a GI50 (SK-MEL-5 melanoma) of 329 nM. The TGI (SK-MEL-5 melanoma) was 1180 nM, the GI50 (LOX IMVI melanoma) was 339 nM and the TGI (LOX IMVI melanoma) was 1210 nM. The GI50 (HCT-15 colon) was 285 nM, the TGI (HCT-15 colon) was 1320 nM and the GI50 (SR leukemia) was 344 nM. For the same compound, the TGI (SR leukemia) was 3260 nM, the GI50 (SNB-19 CNS) was 347 nM and the TGI (SNB-19 CNS) was 10300 nM. It also gave a GI50 (SNB-75 CNS) of 317 nM, a TGI (SNB-75 CNS) of 1440 nM and a GI50 (SN12C renal) of 310 nM. It also gave a TGI (SN12C renal) of 1500 nM, a GI50 (RPMI-8226 leukemia) of 219 nM and a GI50 (EKVX NSCLC) of 335 nM. For the same compound, the TGI (EKVX NSCLC) was 1740 nM, the GI50 (MOLT-4 leukemia) was 333 nM and the TGI (MOLT-4 leukemia) was 1860 nM. For the same compound, the GI50 (HT29 colon) was 353 nM, the TGI (HT29 colon) was 6930 nM and the GI50 (HCC-2998 colon) was 633 nM. It also gave a TGI (HCC-2998 colon) of 4340 nM, a GI50 (HCT-116 colon) of 330 nM and a TGI (HCT-116 colon) of 1250 nM. It also gave a GI50 (NCI-H23 lung) of 348 nM, a TGI (NCI-H23 lung) of 1290 nM and a GI50 (NCI-H460 lung) of 323 nM. For the same compound, the TGI (NCI-H460 lung) was 10100 nM, the GI50 (MDA-MB-435) was 363 nM and the TGI (MDA-MB-435) was 1960 nM. For the same compound, the GI50 (UACC-62 melanoma) was 396 nM, the TGI (UACC-62 melanoma) was 1950 nM and the GI50 (NCI-H226 lung) was 370 nM. The TGI (NCI-H226 lung) was 1490 nM.
